From US11926596B2, “Inhibitors of Rho associated coiled-coil containing protein kinase” (KADMON CORPORATION, LLC, priority 2017, dated 2024)
Like-named read-outs stand apart in the source and are kept apart here.

Key:
[1] = molecular target: T1, recombinant ROCK1 (amino acids 1-535) (Homo sapiens, UniProt Q13464); experiment: Z'-lyte kinase assay, ROCK1; type: biochemical; settings: for inhibition at 3 µM: read-out: ROCK1 % inh
T1 construct: recombinant ROCK1 (amino acids 1-535) and ROCK2; purchased ThermoFisher Scientific
T1 sequence (Q13464 1-535): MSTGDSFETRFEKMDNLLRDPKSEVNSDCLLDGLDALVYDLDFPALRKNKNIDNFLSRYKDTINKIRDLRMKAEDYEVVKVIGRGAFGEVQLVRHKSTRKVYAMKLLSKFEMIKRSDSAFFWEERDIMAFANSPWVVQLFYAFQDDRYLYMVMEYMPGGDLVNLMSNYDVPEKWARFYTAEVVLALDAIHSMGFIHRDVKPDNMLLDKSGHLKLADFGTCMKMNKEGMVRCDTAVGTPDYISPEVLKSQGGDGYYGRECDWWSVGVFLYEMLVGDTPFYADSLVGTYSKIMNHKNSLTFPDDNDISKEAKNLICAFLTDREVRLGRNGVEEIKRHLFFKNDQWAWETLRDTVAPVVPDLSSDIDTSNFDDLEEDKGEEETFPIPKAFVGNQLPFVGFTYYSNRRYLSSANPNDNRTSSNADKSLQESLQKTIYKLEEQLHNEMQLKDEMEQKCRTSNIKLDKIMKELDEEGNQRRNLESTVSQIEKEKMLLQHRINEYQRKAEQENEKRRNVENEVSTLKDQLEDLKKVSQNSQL
Description: (§1) Determination of compounds ROCK inhibitory activity in vitro (Z'lyte assay): recombinant ROCK1 (amino acids 1-535) and ROCK2 (amino acids 1-552) proteins were purchased from ThermoFisher Scientific. Compounds activities were measured by Z′-lyte kinase kit (ThermoFisher Scientific) and IC50s were calculated.
(§2) Table 2, below, provides in vitro and cellular inhibition of ROCKs by compounds of the invention. Compounds activities were measured by Z′-lyte kinase kit (ThermoFisher Scientific). […] IC50s were calculated using the GraphPad Prism software with kinase activities data that were collected from points 9 serial dilution of compounds treatment. The ROCK inhibition in A7R5 cells and NIH3T3 (Acta2-Luc) cells was performed as described above.

[2] = molecular target: T2, recombinant ROCK2 (amino acids 1-552) (Homo sapiens, UniProt O75116); experiment: Z'-lyte kinase assay, ROCK2; type: biochemical
T2 construct: ROCK2 (amino acids 1-552) proteins were purchased from ThermoFisher Scientific; purchased ThermoFisher Scientific
T2 sequence (O75116 1-552): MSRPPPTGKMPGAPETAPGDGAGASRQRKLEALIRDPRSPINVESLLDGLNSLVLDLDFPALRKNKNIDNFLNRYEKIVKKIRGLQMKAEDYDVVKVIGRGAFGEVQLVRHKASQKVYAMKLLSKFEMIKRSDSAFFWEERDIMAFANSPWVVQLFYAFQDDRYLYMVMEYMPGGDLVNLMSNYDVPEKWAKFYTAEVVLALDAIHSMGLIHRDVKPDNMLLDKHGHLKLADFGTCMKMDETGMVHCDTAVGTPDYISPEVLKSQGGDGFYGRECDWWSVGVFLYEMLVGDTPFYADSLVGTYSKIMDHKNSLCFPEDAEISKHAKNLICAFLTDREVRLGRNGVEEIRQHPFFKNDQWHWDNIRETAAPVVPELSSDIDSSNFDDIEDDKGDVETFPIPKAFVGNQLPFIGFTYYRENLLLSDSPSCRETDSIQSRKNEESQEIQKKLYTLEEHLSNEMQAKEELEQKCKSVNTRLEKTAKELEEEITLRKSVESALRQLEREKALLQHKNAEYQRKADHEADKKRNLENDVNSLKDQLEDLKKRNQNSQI
Description: as §1, §2

[3] = test system: luciferase reporter driven by the human ACTA2 gene promoter in NIH3T3 cells; experiment: NIH3T3 cells Acta2-promoter driven-luciferase assay; type: cell-based; settings: plus TGF 1, 24 hr, read-out: NIH3T3, Acta2-luc, IC50
Description: NIH3T3 cells Acta2-promoter driven-luciferase assay: A NIH3T3 cell line stably expressing a luciferase reporter driven by the human ACTA2 gene promoter (−1000-1 bp) was established (NIH3T3-Acta2-luciferase). The cells were plated to confluence and treated with the test compounds plus TGF 1 for 24 hr. Cells were then lysed and luciferase activity was measured using the LightSwitch luciferase kit from Active Motif.

[4] = test system: phospho-myosin light chains (ppMlc, Thr18/Ser19) in A7R5 cells; experiment: A7R5 in-cell ELISA, phospho-myosin light chain; type: cell-based, rat; settings: for IC50 / inhibition at 10 µM: Rattus norvegicus, A7R5 cells; for inhibition at 10 µM: read-out: pMLC % inh A7R5
Description: Determination of compounds ROCK inhibitory activity in A7R5 cells: rat aortic smooth muscle cell line A7R5 cells were maintained and treated in DMEM medium with 10% of fetal bovine serum. Cells were seeded with density of 5,000 cells/well in 96-well plates for 24 hours and subsequently treated 90 min with testing compounds. Cells were then fixed and processed according to the In-Cell ELISA Colorimetric Detection Kit manual (Thermo Scientific). Cellular phospho-myosin light chains (ppMlc, Thr18/Ser19) levels were determined after treatments of DMSO control or test compounds using the In-Cell ELISA kit. The percent inhibition rate was calculated by applying the data obtained with 1 μM (or 10 μM) compound treatment to the formula, [1-(compound/DMSO)]×100%. ppMlc data obtained with 9 points 2-fold serial dilution of compounds were applied to the nonlinear regression curve fit function of the GraphPad Prism software to calculate the In cell IC50s.
A7R5 cells were treated with 9 points 2 fold serial dilution of compounds and ppMlc (T18/S19) levels were determined in order to calculate cellular IC50s of the compounds.
Two steps of measurements were adopted for pMLC/A7R5 IC50. Percent inhibition rates were calculated with a single dose (1 μM or 10 μM) compounds treatment to screen for active compounds and then cellular IC50s were measured only in compounds that have over 50% of inhibition rates.

[5] = 1.5 h, 90 min, read-out: pMLC IC50 A7R5

SMILES | IC50 [1] [µM] | inhibition at 0.5 µM ([2]; read-out: ROCK2 % inh) [%] | IC50 [4, 5] [µM] | IC50 ([4]; ppMlc (T18/S19), 9 points 2 fold serial dilution, read-out: ppMIc IC50) [µM] | inhibition at 3 µM [1] [%] | IC50 [2] [µM] | inhibition at 1 µM ([2]; @ 1 μM, read-out: ROCK2 % inh) [%] | inhibition at 3 µM ([2]; read-out: ROCK2 % inh) [%] | IC50 [3] [µM] | cellular ROCK inhibition compared with Comparative Example 2 ([4]; phosphorylation of the ROCK target pMLC in A7R5 cells) | inhibition at 10 µM [4] [%]
CNC(C(=O)Nc1ccc2[nH]ncc2c1)c1ccc(Oc2ccc(OC)cc2)cc1 (stereo not shown) [Example 14, N-(1H-indazol-5-yl)-2-(4-(4-methoxyphenoxy)phenyl)-2-(methylamino)acetamide] | 0.0326 | 100 | 0.207 | 0.207 |  |  |  |  | 0.678 |  | 
CCNC(C(=O)Nc1ccc2[nH]ncc2c1)c1ccc(F)cc1 (stereo not shown) [Example 23, 2-(ethylamino)-2-(4-fluorophenyl)-N-(1H-indazol-5-yl)acetamide] | 0.495 |  | 1.06 |  | 94.3 | 0.043 |  | 95.3 |  |  | 
CNC(C(=O)Nc1ccc2[nH]ncc2c1)c1ccc(OC)cc1 (stereo not shown) [Example 24, N-(1H-indazol-5-yl)-2-(4-methoxyphenyl)-2-(methylamino)acetamide] | 0.00389 |  | 0.224 |  | 99 | 0.0036 |  | 98.8 | 0.321 |  | 
Cc1ccc(C(NC(C)C)C(=O)Nc2ccc3[nH]ncc3c2)cc1 (stereo not shown) [Example 29, N-(1H-indazol-5-yl)-2-(isopropylamino)-2-(p-tolyl)acetamide] | 0.0657 |  | 0.934 |  | 99 | 0.0063 |  | 98.8 |  |  | 
COc1ccc(C(NC(C)(C)C)C(=O)Nc2ccc3[nH]ncc3c2)cc1 (stereo not shown) [Example 36, 2-(tert-butylamino)-N-(1H-indazol-5-yl)-2-(4-methoxyphenyl)acetamide] | 0.0247 |  | 0.766 |  | 99 | 0.0099 |  | 98.8 |  |  | 
CNC(C(=O)Nc1ccc2[nH]ncc2c1)c1cccnc1 (stereo not shown) [Example 39, N-(1H-indazol-5-yl)-2-(methylamino)-2-(pyridin-3-yl)acetamide] | 0.25 |  | 4.21 |  |  | 0.213 |  |  |  |  | 
CNC(C(=O)Nc1ccc2[nH]ncc2c1)c1ccccn1 (stereo not shown) [Example 40, N-(1H-indazol-5-yl)-2-(methylamino)-2-(pyridin-2-yl)acetamide] | 0.143 |  |  |  |  | 0.453 |  |  |  |  | 37
CNC(C(=O)Nc1ccc2[nH]ncc2c1)c1cccc(Cl)c1 (stereo not shown) [Example 42, 2-(3-chlorophenyl)-N-(1H-indazol-5-yl)-2-(methylamino)acetamide] | 0.0088 |  | 0.454 |  |  | 0.016 |  |  | 0.882 |  | 
CCNC(C(=O)Nc1ccc2[nH]ncc2c1)c1cccc(F)c1 (stereo not shown) [Example 51, 2-(ethylamino)-2-(3-fluorophenyl)-N-(1H-indazol-5-yl)acetamide] |  |  | 1.66 |  |  | 0.053 |  |  | 5.45 |  | 
CNC(C(=O)Nc1ccc2[nH]ncc2c1)c1cccc(C)c1 (stereo not shown) [Example 52, N-(1H-indazol-5-yl)-2-(methylamino)-2-(m-tolyl)acetamide] |  |  | 0.532 |  |  | 0.034 |  |  | 1.51 |  | 
CNC(C(=O)Nc1ccc2[nH]ncc2c1)c1cccc(F)c1 (stereo not shown) [Example 53, 2-(3-fluorophenyl)-N-(1H-indazol-5-yl)-2-(methylamino)acetamide] |  |  | 0.914 |  |  | 0.041 |  |  | 1.16 |  | 
CN[C@H](C(=O)Nc1ccc2[nH]ncc2c1)c1cccc(OC)c1 [Example 55, (S)-N-(1H-indazol-5-yl)-2-(3-methoxyphenyl)-2-(methylamino)acetamide] |  |  | 0.589 |  |  | 0.03 |  |  | 0.773 |  | 

Continued, in another order:

IC50 [1] [µM] | inhibition at 0.5 µM ([2]; read-out: ROCK2 % inh) [%] | IC50 [4, 5] [µM] | IC50 ([4]; ppMlc (T18/S19), 9 points 2 fold serial dilution, read-out: ppMIc IC50) [µM] | inhibition at 3 µM [1] [%] | IC50 [2] [µM] | inhibition at 1 µM ([2]; @ 1 μM, read-out: ROCK2 % inh) [%] | inhibition at 3 µM ([2]; read-out: ROCK2 % inh) [%] | SMILES | IC50 [3] [µM] | cellular ROCK inhibition compared with Comparative Example 2 ([4]; phosphorylation of the ROCK target pMLC in A7R5 cells) | inhibition at 10 µM [4] [%]
0.0038 |  | 0.252 |  | 93.2 | 0.015 | 99 |  | CNC(C(=O)Nc1ccc2[nH]ncc2c1)c1ccc(Cl)cc1 (stereo not shown) [Example 16, 2-(4-chlorophenyl)-N-(1H-indazol-5-yl)-2-(methylamino)acetamide] | 0.915 | enhanced | 
0.0106 |  | 0.633 |  | 99 | 0.0097 |  | 98.8 | COc1ccc(C(NC(C)C)C(=O)Nc2ccc3[nH]ncc3c2)cc1 (stereo not shown) [Example 25, N-(1H-indazol-5-yl)-2-(isopropylamino)-2-(4-methoxyphenyl)acetamide] |  |  | 
0.024 |  | 0.261 |  | 99 | 0.012 |  | 98.8 | CCNC(C(=O)Nc1ccc2[nH]ncc2c1)c1ccc(OC)cc1 (stereo not shown) [Example 26, 2-(ethylamino)-N-(1H-indazol-5-yl)-2-(4-methoxyphenyl)acetamide] | 0.845 |  | 
0.079 |  | 2.98 |  |  | 0.066 |  |  | COc1ccc(C(NC2CC2)C(=O)Nc2ccc3[nH]ncc3c2)cc1 (stereo not shown) [Example 27, 2-(cyclopropylamino)-N-(1H-indazol-5-yl)-2-(4-methoxyphenyl)acetamide] |  |  | 
0.0178 |  | 0.834 |  | 99 | 0.0212 |  | 98.8 | CNC(C(=O)Nc1ccc2[nH]ncc2c1)c1ccc(C)cc1 (stereo not shown) [Example 28, N-(1H-indazol-5-yl)-2-(methylamino)-2-(p-tolyl)acetamide] |  |  | 
0.016 |  | 0.502 |  | 99 | 0.013 |  | 98.8 | CCNC(C(=O)Nc1ccc2[nH]ncc2c1)c1ccc(C)cc1 (stereo not shown) [Example 30, 2-(ethylamino)-N-(1H-indazol-5-yl)-2-(p-tolyl)acetamide] | 0.96 |  | 
0.228 |  |  |  |  | > 1 |  |  | Cc1ccc(C(NC2CC2)C(=O)Nc2ccc3[nH]ncc3c2)cc1 (stereo not shown) [Example 31, 2-(cyclopropylamino)-N-(1H-indazol-5-yl)-2-(p-tolyl)acetamide] |  |  | 35
0.31 |  |  |  |  | > 1 |  |  | CNC(C(=O)Nc1ccc2[nH]ncc2c1)c1ccc(-c2ccccc2OC)cc1 (stereo not shown) [Example 32, N-(1H-indazol-5-yl)-2-(2′-methoxy-[1,1′-biphenyl]-4-yl)-2-(methylamino)acetamide] |  |  | 5
0.0981 |  | 2.6 |  | 99 | 0.0743 |  | 98.8 | CC(C)(C)NC(C(=O)Nc1ccc2[nH]ncc2c1)c1ccccc1 (stereo not shown) [Example 37, 2-(tert-butylamino)-N-(1H-indazol-5-yl)-2-phenylacetamide] |  |  | 
0.0614 |  | 1.34 |  | 100 | 0.0274 |  | 100 | Cc1ccc(C(NC(C)(C)C)C(=O)Nc2ccc3[nH]ncc3c2)cc1 (stereo not shown) [Example 38, 2-(tert-butylamino)-N-(1H-indazol-5-yl)-2-(p-tolyl)acetamide] |  |  | 
 |  | 0.2 |  |  | 0.014 |  |  | CN[C@@H](C(=O)Nc1ccc2[nH]ncc2c1)c1cccc(OC)c1 [Example 54, (R)-N-(1H-indazol-5-yl)-2-(3-methoxyphenyl)-2-(methylamino)acetamide] | 0.268 |  | 
 |  | 0.546 |  |  | 0.046 |  |  | CNC(C(=O)Nc1ccc2[nH]ncc2c1)c1ccc(OC(F)(F)F)cc1 (stereo not shown) [Example 56, N-(1H-indazol-5-yl)-2-(methylamino)-2-(4-(trifluoromethoxy)phenyl)acetamide] | 0.666 |  | 
 | 95 | 0.339 |  |  | 0.025 |  |  | CNC(C(=O)Nc1ccc2[nH]ncc2c1)c1ccc(OC)c(F)c1 (stereo not shown) [Example 57, 2-(3-fluoro-4-methoxyphenyl)-N-(1H-indazol-5-yl)-2-(methylamino)acetamide] | 0.473 |  | 
